Article PMC11952641, “A Novel D-peptide modulates DCLK1 Gelsolin interactions, reducing PDAC tumor growth” (Research Square, 2025)
Non-standard residues stand in square brackets, D forms with d. Residues, ends and D or L forms follow the SMILES beside them.

What was measured:
DCLK1 isoform 4-pGSN = test: ELISA: effect of peptides on DCLK1-Gelsolin PPI; type: binding, human; conditions: peptide 20 mg/well (so in the source), pGSN 2 μg/ml, Fig. 3H
Description: (§1) Purification of human DCLK1 isoform 4 was performed at the University of Oklahoma Protein Production and Characterization Core Facility (Norman, OK) using an E. coli strain BL21(DE3) pLPP containing the pET19-DCLK1 isoform 4 plasmid. For Bio-layer Interferometry (BLI) experiments, a C-terminal DCLK1 isoform 2/4 His-tagged protein was used (NovoPro, Shanghai, China). All His-tagged proteins were dialyzed using PBS/glycerol to remove imidazole.
(§2) Polystyrene microtitre Immulon 2HB plate was coated with freshly prepared (400 ng/50 ml) DCLK1 isoform 4 ([…]) in 0.1 M NaHCO3, pH 8.6, overnight at 4C. After blocking with 1% gelatin in TTBS at RT, different concentrations of gelsolin or FGF19 were added (2 mg/50ul/well, 1 mg/well, 0.5 mg/well, and 0.25 mg/well at […], proteins diluted in TTBS), and incubated at RT. To study the competitive ability of peptides, we used 20 mg/well of either D-peptide 1, D-peptide 3, D-peptide 5, or the C-terminal peptide antigen for the mAb CBT-15. After incubation at RT, plates were washed with TTBS, and bound gelsolin or FGF19 was detected. […] Detection was by alkaline phosphatase-conjugated goat anti-mouse IgG (ab97020; Abcam, Waltham, MA) followed by 1-STEP NBT/BCIP substrate (#34042; ThermoFisher Scientific, Waltham, MA) and quantified at 450 nm on a microplate reader.

AsPC-1 xenografts = test: AsPC-1 xenograft tumor growth in athymic nude mice; type: in vivo, athymic nude (Foxn1nu/Foxn1nu) mice; conditions: 10 mg/kg subcutaneously every three days; day 36
Description: Athymic nude (Foxn1^nu/Foxn1^nu) mice were purchased from the Jackson Laboratory (Bar Harbor, Maine) and housed in pathogen-free conditions. AsPC-1 cells (1 × 10^7) were injected subcutaneously into the flanks of 4- to 6-week-old mice (n=3/group). Tumors were measured using a caliper and the volume was calculated as (length × width^2) × 0.5. Once tumors achieved an average size of ~100 mm^3, mice were injected subcutaneously with selected D-peptides at a dose of 10 mg/kg. Treatments were continued every three days until day 36.

DCLK1 isoform 1 = test: Cross-reactivity to DCLK1 isoform 1; type: binding, human
DCLK1 isoform 4 / CBT-15 = test: Competition assay: CBT-15 binding to DCLK1 isoform 4; set-up: species or system human; conditions: Fig. 1D, mean ± SEM, *p < 0.01
[1] = system: Capan-1 pancreatic cancer cells; test: Colony formation assay, Capan-1; type: cell-based; conditions: Fig. 2B, blinded study
[2] = biological target: T1, DCLK1 isoform 4 (human His-tagged DCLK1 C-terminal recombinant protein) (Homo sapiens, UniProt O15075); test: BLI evaluation of D-peptide binding to DCLK1 NKEBD; conditions: DCLK1 isoform 4 immobilized on biosensor, PBS/0.05%Tween20/1%DMSO, from 30 μM in a 1:3 series
T1 sequence (O15075 687-740 limits assumed): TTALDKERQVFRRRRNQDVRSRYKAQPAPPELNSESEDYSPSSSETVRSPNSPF
Description: as §1
Human His-tagged DCLK1 C-terminal recombinant protein from NovoPro was used. Binding to the sensor was carried out in PBS/0.05%Tween20/1%DMSO. Response is measured as a nm shift in the interference pattern and is proportional to the number of molecules bound to the biosensor’s surface. Initially, all peptides were tested at 5 and 30 μM. The top binders were tested again with eight different concentrations, starting at 30 μM and diluted in a 1:3 series to determine the dissociation constant (KD).

DCLK1 isoform 4 [3] = test: D-peptide library screen for binding to DCLK1 isoform 4, excluding isoform 1 binders; set-up: species or system human; conditions: bead library screen, biotin-labeled DCLK1 isoform 4
Description: An aliquot from each sub-library, containing approximately 1000 beads, was added to a well of a 96-well polystyrene multi-well plate. From 1.5 to 2 ml of Superblock (Pierce Chemical Company, Rockford, IL.) reagent, 0.1% gelatin, or 1%(w/v) bovine serum albumin (BSA) in phosphate-buffered saline (PBS), pH 7.4, was added to each well, and the plates were incubated for one to two hours at room temperature (RT), with periodic or continuous mixing by gentle rocking. Purified DCLK1 isoform 4 protein was labeled with biotin using the biotinylating reagent NHS-LC-biotin (Pierce Chemical Company) according to the supplier’s instructions. Biotin-labeled protein was detected using AP-conjugated to neutravidin (Pierce Chemical Company) incubated with the beads for 30 minutes, after which the beads were washed three times with a Tris-buffered saline solution (pH 7.5), with the second wash being left in contact with the beads for 30 minutes. One-step NBT/BCIP (nitro-blue tetrazolium chloride/5-bromo-4-chloro-3’-indolyphosphate p-toluidine salt) (Pierce Chemical Co.) was then added and the beads observed under a low-power microscope until some of the beads had turned a dark purple color. The beads were washed with PBS twice, followed by 1% acetic acid and a final wash in water. Dark purple-black beads were removed using a small-bore pipette and subjected to amino acid sequence analysis. […]

[4] = system: AsPC-1 pancreatic cancer cells; test: Colony formation assay, AsPC-1; type: cell-based; conditions: Fig. 2A, blinded study
DCLK1 isoform 4 [5] = test: ELISA: FGF19 binding to DCLK1 isoform 4; set-up: species or system human; conditions: RT, 450 nm, Fig. 3H
Description: as §1, §2

DCLK1 isoform 4 [6] = test: SPR binding to DCLK1 isoform 4; set-up: species or system human; conditions: DCLK1 isoform 4 binding to Gelsolin, Fig. 3F
Description: as §1

DCLK1 isoform 4 [7] = test: ELISA: pGSN binding to DCLK1 isoform 4; set-up: species or system human; conditions: 1% gelatin blocking, RT, 450 nm, Fig. S2
Description: as §1, §2

plasma gelsolin = biological target: T2, plasma gelsolin (UniProt P06396 28-782); test: SPR; who was immobilised and the conditions not given; conditions: both partners purified
T2 construct: plasma gelsolin (pGSN), the extracellular form of gelsolin; The source is told for the ELISA only; also called pGSN; source: bought: Abcam (ab233671)
T2 sequence (P06396 28-782): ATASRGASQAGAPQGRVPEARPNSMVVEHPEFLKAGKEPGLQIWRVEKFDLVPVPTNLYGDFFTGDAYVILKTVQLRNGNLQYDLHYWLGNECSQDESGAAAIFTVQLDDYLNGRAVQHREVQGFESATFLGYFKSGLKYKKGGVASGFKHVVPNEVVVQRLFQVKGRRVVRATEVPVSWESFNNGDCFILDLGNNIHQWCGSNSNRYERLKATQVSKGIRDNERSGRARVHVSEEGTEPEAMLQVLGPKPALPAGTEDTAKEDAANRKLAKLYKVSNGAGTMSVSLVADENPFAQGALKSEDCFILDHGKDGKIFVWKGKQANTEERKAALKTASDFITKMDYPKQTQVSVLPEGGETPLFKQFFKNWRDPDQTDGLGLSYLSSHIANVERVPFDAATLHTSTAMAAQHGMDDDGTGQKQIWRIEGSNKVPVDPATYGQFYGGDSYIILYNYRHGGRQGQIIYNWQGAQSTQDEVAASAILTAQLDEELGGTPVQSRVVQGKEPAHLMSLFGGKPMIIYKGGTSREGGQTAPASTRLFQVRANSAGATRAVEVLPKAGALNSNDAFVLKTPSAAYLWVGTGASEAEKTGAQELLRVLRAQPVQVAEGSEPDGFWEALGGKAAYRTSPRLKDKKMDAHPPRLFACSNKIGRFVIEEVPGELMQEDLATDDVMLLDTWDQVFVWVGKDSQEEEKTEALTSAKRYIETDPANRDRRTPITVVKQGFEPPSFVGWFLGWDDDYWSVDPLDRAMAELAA

NCC(=O)N[C@H](Cc1c[nH]c2ccccc12)C(=O)N[C@H](Cc1ccc(O)cc1)C(=O)NCC(=O)N[C@H](Cc1c[nH]c2ccccc12)C(=O)NCC(=O)N[C@H](CC(=O)O)C(=O)N[C@H](CC(=O)O)C(=O)O [D-peptide 1] (H-G[dW][dY]G[dW]G[dD][dD]-OH)
effect on pGSN binding to DCLK1 isoform 4 (DCLK1 isoform 4-pGSN): did not block the PPI interaction
improvement of pGSN binding to DCLK1 (DCLK1 isoform 4-pGSN): seemed to improve pGSN binding to DCLK1
necrosis or apoptosis in tumors (AsPC-1 xenografts): without inducing necrosis or apoptosis
cross-reactivity to isoform 1 (DCLK1 isoform 1): minimal cross-reactivity to isoform 1
inhibition of CBT-15 binding to DCLK1 isoform 4 (DCLK1 isoform 4 / CBT-15): None of these D-peptides significantly inhibited CBT-15 binding
colony formation [1]: significantly reduced colony formation at low micromolar concentrations
Kd [2]: 396 nM
specific binding to isoform 4 (DCLK1 isoform 4 [3]): binds specifically to DCLK1 isoform 4
colony formation [4]: significantly reduced colony formation at low micromolar concentrations

FGF19: candidate DCLK1 interacting protein known to be extracellularly localized (969-FG-025; Bio-Techne)
binding to DCLK1 isoform 4 (DCLK1 isoform 4 [5]): bound to DCLK1 isoform 4 similarly to pGSN

Gelsolin
Kd (DCLK1 isoform 4 [6]): ~100 nM
binding to DCLK1 isoform 4 across the gradient (DCLK1 isoform 4 [7]): consistent, linear binding

B1: human DCLK1 isoform 4 (β-short) (natural protein, UniProt O15075-4 1-433, looked up)
chain: MLELIEVNGTPGSQLSTPRSGKSPSPSPTSPGSLRKQRSSQHGGSSTSLASTKVCSSMDENDGPGEEVSEEGFQIPATITERYKVGRTIGDGNFAVVKECVERSTAREYALKIIKKSKCRGKEHMIQNEVSILRRVKHPNIVLLIEEMDVPTELYLVMELVKGGDLFDAITSTNKYTERDASGMLYNLASAIKYLHSLNIVHRDIKPENLLVYEHQDGSKSLKLGDFGLATIVDGPLYTVCGTPTYVAPEIIAETGYGLKVDIWAAGVITYILLCGFPPFRGSGDDQEVLFDQILMGQVDFPSPYWDNVSDSAKELITMMLLVDVDQRFSAVQVLEHPWVNDDGLPENEHQLSVAGKIKKHFNTGPKPNSTAAGVSVIATTALDKERQVFRRRRNQDVRSRYKAQPAPPELNSESEDYSPSSSETVRSPNSPF
modifications: biotin (NHS-LC-biotin) in the library screen only
notes: human DCLK1 isoform 4 (β-short, NP_001182345); also called Doublecortin-like kinase 1 isoform 4; beta-short; source: E. coli BL21(DE3) pLPP with the pET19-DCLK1 isoform 4 plasmid, purified
Kd (plasma gelsolin): ~100 nM
